Key:
[1] = tested on: Raji (Burkitt's) lymphoma cells; assay: MTT assay for 4-day viability of Raji (Burkitt's) lymphoma cells; assay type: cell-based; settings: Homo sapiens, 96 h, Raji cells (highly express MCT1), estimated values, read-out: approximate potency (EC50 nM)
Description: Specific Examples of compounds of the invention, with estimated EC50 values determined using an MTT assay for 4-day viability of Raji (Burkitt's) lymphoma cells, a cell line known to highly express MCT1 and to be sensitive to small molecule MCT inhibitors,^4 are shown in Table 3. Assay protocols follow those described in the literature.^4 Other assays that are not described here but that are standard in the field, such as an assay for competitive inhibition of transport of radiolabeled lactic acid, an MCT substrate, may also be useful in establishing mechanism of action of these compounds.

T47D tumor cells = assay: Mouse xenograft experiment using T47D tumor cells; assay type: in vivo, mice; settings: 30 mg/kg daily
Protocol: (§1) The in vivo effects of a few selected agents have been evaluated in mouse xenograft models and found to be effective. Protocols follow those described in the literature.^4
(§2) Mice were transplanted with cultured tumor cells and after an incubation period (typically 8-12 days), mice were left untreated or were treated daily with a 30 mg/kg dose of the test compound. Tumor volumes were measured with calipers over […] of treatment. Tumors were excised and weighed at the end of treatment. In some experiments the mice were co-treated daily with a 30 mg/kg dose of the test compound and 5 mg/kg of metformin.

[2] = tested on: Raji Burkitt lymphoma cells; assay: Xenograft of tumors derived from Raji Burkitt lymphoma cells in nude mice; assay type: in vivo; settings: versus vehicle
Protocol: as §1, §2
In a separate experiment, this same compound was used in a study using implanted tumors derived from Raji Burkitt lymphoma cells, implanted into nude mice and treated as before with vehicle, with SR-11431, or with SR-11431 plus metformin.

- EC50 [1]: < 50 nM
SMILES: CC(C)Cn1c(=O)n(C)c(=O)c2nc(CCCCCO)c(COc3cccc4cnccc34)nc21 [Example 3, 6-(5-hydroxypentyl)-1-isobutyl-7-((isoquinolin-5-yloxy)methyl)-3-methylpteridine-2,4(1H,3H)-dione]
- tumor volume (T47D tumor cells; versus vehicle): significant reduction of tumor volume
- final tumor mass (T47D tumor cells; versus vehicle treated animals, end of treatment): reduction in final tumor mass
- tumor volume over time ([2]; 30 mg/kg daily (co-treatment: plus 5 mg/kg metformin), 30-day time course): Reduction of tumor volume over time
- final tumor weight ([2]; end of treatment (day 32)): not significantly changed

Reference: patent publication US10874675B2, “Pteridine dione monocarboxylate transporter inhibitors” (The Scripps Research Institute, priority 2015, dated 2020)
